Test results published in patent US20260317320A1, “C5AR1 ANTAGONISTS AND USES THEREOF” (Vanqua Bio, Inc., priority 2022, published 2026).
Like-named read-outs stand apart in the source and are kept apart here.

Tests used:
[1] = molecular target: T1, complement C5a receptor 1 (C5aR1) (Homo sapiens, UniProt P21730); assay: β-arrestin recruitment via C5aR1 activation in live CHO-K1 cells (PathHunter), antagonist mode; assay type: cell-based; settings: antagonist mode; recombinant hC5a (EC90) as competing natural agonist; live CHO-K1 cells; read-out: [Antagonist] B-arrestin2 recruitment: Average IC50
T1 construct: β-galactosidase fragment (PathHunter enzyme complementation); host or cells: CHO-K1 (PathHunter CHO-K1 C5aR1 β-arrestin cell line)
T1 sequence (P21730 1-350): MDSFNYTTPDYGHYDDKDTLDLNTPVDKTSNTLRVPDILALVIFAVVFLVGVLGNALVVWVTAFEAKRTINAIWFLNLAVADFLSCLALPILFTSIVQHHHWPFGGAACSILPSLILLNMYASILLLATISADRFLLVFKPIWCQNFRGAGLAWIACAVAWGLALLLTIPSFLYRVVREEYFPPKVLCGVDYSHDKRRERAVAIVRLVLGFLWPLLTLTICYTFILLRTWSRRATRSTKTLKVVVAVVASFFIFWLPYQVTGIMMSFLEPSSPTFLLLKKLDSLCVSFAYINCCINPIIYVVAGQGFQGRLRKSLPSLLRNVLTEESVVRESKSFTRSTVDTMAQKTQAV
Method in brief: (§1)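 β-arrestin recruitment to C5aR1 in CHO-K1 cells is detected by enzyme-fragment complementation. Antagonism is measured against recombinant hC5a at its EC90; agonism is measured with compound alone. Potencies are grouped into IC50 categories.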

[2] = molecular target: T1, complement C5a receptor 1 (C5aR1); assay: β-arrestin recruitment via C5aR1 activation in live CHO-K1 cells (PathHunter), agonist mode; assay type: cell-based
Method in brief: as §1

| Compound | IC50 [1] [nM] | [Agonist] B-arrestin2 recruitment: Average EC50 (nM) [2] | [Agonist] B-arrestin2 recruitment: Average EC50 (nM) ([2]; at 10 μM) |
| --- | --- | --- | --- |
| Cc1ncc2cc([C@H]3CC[C@H](c4c(C)cccc4F)CC3)c(=O)n(Cc3ncccc3OC(F)(F)F)c2n1 [compound 198, 6-((1r,4r)-4-(2-Fluoro-6-methylphenyl)cyclohexyl)-2-methyl-8-((3-(trifluoromethoxy)pyridin-2-yl)methyl)pyrido[2,3-d]pyrimidin-7(8H)-one] | < 500 | Non-Active |  |
| Cc1cnc2cc([C@H]3CC[C@@H](c4c(C)cccc4F)C3)c(=O)n(Cc3nccnc3C)c2n1 [172A, 7-((1S,3R)-3-(2-Fluoro-6-methylphenyl)cyclopentyl)-3-methyl-5-((3-methylpyrazin-2-yl)methyl)pyrido[2,3-b]pyrazin-6(5H)-one] | 500 to 5000 |  | Non-Active at 10 μM |
| Cc1ccc2cc([C@H]3CC[C@H](c4c(C)cccc4F)CC3)c(=O)n(Cc3nccnc3C(F)F)c2n1 [compound 210, 1-((3-(Difluoromethyl)pyrazin-2-yl)methyl)-3-((1r,4r)-4-(2-fluoro-6-methylphenyl)cyclohexyl)-7-methyl-1,8-naphthyridin-2(1H)-one] | < 500 |  | Non-Active at 10 μM |
| Cc1cnc2cc(C3CCN(c4nn(C)c5ccccc45)CC3)c(=O)n(Cc3ncccc3C(F)(F)F)c2n1 [compound 186, 3-Methyl-7-(1-(1-methyl-1H-indazol-3-yl)piperidin-4-yl)-5-((3-(trifluoromethyl)pyridin-2-yl)methyl)pyrido[2,3-b]pyrazin-6(5H)-one] | 5000 to 100000 |  | Non-Active at 10 μM |
| Cc1cccc(F)c1N1CCN(c2cc3nccnc3n(Cc3ncccc3OC(F)(F)F)c2=O)CC1 [compound 123, 7-(4-(2-Fluoro-6-methylphenyl)piperazin-1-yl)-5-((3-(trifluoromethoxy)pyridin-2-yl)methyl)pyrido[2,3-b]pyrazin-6(5H)-one] | < 500 | Non-Active |  |
| Cc1cnc2cc([C@H]3CC[C@H](c4c(C)cccc4F)CC3)c(=O)n(Cc3ncccc3C(C)(F)F)c2n1 [compound 177, 5-((3-(1,1-Difluoroethyl)pyridin-2-yl)methyl)-7-((1r,4r)-4-(2-fluoro-6-methylphenyl)cyclohexyl)-3-methylpyrido[2,3-b]pyrazin-6(5H)-one] | < 500 | Non-Active |  |
| O=c1c(C2CCN(c3ccccc3C(F)(F)F)CC2)cc2nccnc2n1Cc1nccnc1C(F)(F)F [compound 64, 7-(1-(2-(Trifluoromethyl)phenyl)piperidin-4-yl)-5-((3-(trifluoromethyl)pyrazin-2-yl)methyl)pyrido[2,3-b]pyrazin-6(5H)-one] | 500 to 5000 | Non-Active |  |
| Cc1ccc2cc([C@H]3CC[C@H](c4c(C)cccc4F)CC3)c(=O)n(Cc3ncccc3OC(F)(F)F)c2n1 [compound 196, 3-((1r,4r)-4-(2-Fluoro-6-methylphenyl)cyclohexyl)-7-methyl-1-((3-(trifluoromethoxy)pyridin-2-yl)methyl)-1,8-naphthyridin-2(1H)-one] | < 500 | Non-Active |  |
| Cc1cnc2cc(C3CCN(c4cc(F)cnc4C)CC3)c(=O)n(Cc3nccnc3C(F)(F)F)c2n1 [compound 52, 7-(1-(5-Fluoro-2-methylpyridin-3-yl)piperidin-4-yl)-3-methyl-5-((3-(trifluoromethyl)pyrazin-2-yl)methyl)pyrido[2,3-b]pyrazin-6(5H)-one] | > 100000 | Non-Active |  |
| Cc1cccc(F)c1N1CCC(c2c(C)c3nccnc3n(Cc3ccccc3C(F)(F)F)c2=O)CC1 [compound 2, 7-(1-(2-Fluoro-6-methylphenyl)piperidin-4-yl)-8-methyl-5-(2-(trifluoromethyl)benzyl)pyrido[2,3-b]pyrazin-6(5H)-one] | 500 to 5000 | Non-Active |  |
| Cc1cnc2cc([C@H]3CC[C@H](c4cnccc4C(F)(F)F)CC3)c(=O)n(Cc3ncccc3C(F)(F)F)c2n1 [150B, 3-Methyl-5-((3-(trifluoromethyl)pyridin-2-yl)methyl)-7-((1r,4r)-4-(4-(trifluoromethyl)pyridin-3-yl)cyclohexyl)pyrido[2,3-b]pyrazin-6(5H)-one] | < 500 | Non-Active |  |
| O=c1c(C2CCN(c3nccnc3F)CC2)cc2nccnc2n1Cc1ccccc1C(F)(F)F [compound 34, 7-(1-(3-Fluoropyrazin-2-yl)piperidin-4-yl)-5-(2-(trifluoromethyl)benzyl)pyrido[2,3-b]pyrazine-6(5H)-one] | > 100000 | Non-Active |  |
| Cc1ccc2cc([C@H]3CC[C@H](c4ccccc4C(F)(F)F)CC3)c(=O)n(Cc3ncccc3OC(F)(F)F)c2n1 [compound 244, 7-Methyl-1-((3-(trifluoromethoxy)pyridin-2-yl)methyl)-3-((1r,4r)-4-(2-(trifluoromethyl)phenyl)cyclohexyl)-1,8-naphthyridin-2(1H)-one] | < 500 | Non-Active |  |
| Cc1cccc(F)c1N1CCC(c2c(C)c3nccnc3n(Cc3nccnc3C(F)(F)F)c2=O)CC1 [compound 22, 7-(1-(2-Fluoro-6-methylphenyl)piperidin-4-yl)-8-methyl-5-((3-(trifluoromethyl)pyrazin-2-yl)methyl)pyrido[2,3-b]pyrazin-6(5H)-one] | 500 to 5000 | Non-Active |  |
| Cc1cnc2cc(N3CCN(c4cc(F)cnc4C)CC3)c(=O)n(Cc3nccnc3C(F)(F)F)c2n1 [compound 59, 7-(4-(5-Fluoro-2-methylpyridin-3-yl)piperazin-1-yl)-3-methyl-5-((3-(trifluoromethyl)pyrazin-2-yl)methyl)pyrido[2,3-b]pyrazin-6(5H)-one] | > 100000 | Non-Active |  |
| Cc1cnc2cc([C@H]3CC[C@H](c4cnsc4C)CC3)c(=O)n(Cc3ncccc3OC(F)(F)F)c2n1 [compound 253, 3-Methyl-7-[(1r,4r)-4-(5-methyl-4-isothiazolyl)cyclohexyl]-5-[(3-trifluoromethoxy-2-pyridyl)methyl]-1,4,5-triaza-6(5H)-naphthalenone] | < 500 | Non-Active |  |

Continued, values first:

| IC50 [1] [nM] | [Agonist] B-arrestin2 recruitment: Average EC50 (nM) [2] | [Agonist] B-arrestin2 recruitment: Average EC50 (nM) ([2]; at 10 μM) | Compound |
| --- | --- | --- | --- |
| > 100000 | Non-Active |  | O=c1c(C2CCN(c3cccnc3C(F)(F)F)CC2)cc2nccnc2n1Cc1ccccc1F [compound 18, 5-(2-Fluorobenzyl)-7-(1-(2-(trifluoromethyl)pyridin-3-yl)piperidin-4-yl)pyrido[2,3-b]pyrazin-6(5H)-one] |
| < 500 | Non-Active |  | Cc1ccc2cc([C@H]3C[C@H](c4c(C)cccc4F)C3)c(=O)n(Cc3ncccc3C(F)(F)F)c2n1 [243A, 3-((1r,3r)-3-(2-Fluoro-6-methylphenyl)cyclobutyl)-7-methyl-1-((3-(trifluoromethyl)pyridin-2-yl)methyl)-1,8-naphthyridin-2(1H)-one] |
| 500 to 5000 |  | Non-Active at 10 μM | Cc1cnc2cc(N3CCN(c4c(C)cccc4F)CC3)c(=O)n(Cc3nccnc3OC(F)F)c2n1 [161A, 5-((3-(Difluoromethoxy)pyrazin-2-yl)methyl)-7-(4-(2-fluoro-6-methylphenyl)piperazin-1-yl)-3-methylpyrido[2,3-b]pyrazin-6(5H)-one] |
| < 500 |  | Non-Active at 10 μM | Cc1cnc2cc([C@H]3CC[C@H](c4ncccc4C(F)F)CC3)c(=O)n(Cc3ncccc3C(F)(F)F)c2n1 [compound 179, 7-((1r,4r)-4-(3-(Difluoromethyl)pyridin-2-yl)cyclohexyl)-3-methyl-5-((3-(trifluoromethyl)pyridin-2-yl)methyl)pyrido[2,3-b]pyrazin-6(5H)-one] |
| < 500 | Non-Active |  | Cc1cnc2cc([C@H]3CC[C@H](c4c(C)cccc4F)CC3)c(=O)n(Cc3ncccc3C(F)F)c2n1 [compound 176, 5-((3-(Difluoromethyl)pyridin-2-yl)methyl)-7-((1r,4r)-4-(2-fluoro-6-methylphenyl)cyclohexyl)-3-methylpyrido[2,3-b]pyrazin-6(5H)-one] |
| 5000 to 100000 |  | Non-Active at 10 μM | Cc1cccc(F)c1N1CCC(c2cc3nccnc3n(Cc3nccn(C(F)F)c3=O)c2=O)CC1 [compound 159, 5-((4-(Difluoromethyl)-3-oxo-3,4-dihydropyrazin-2-yl)methyl)-7-(1-(2-fluoro-6-methylphenyl)piperidin-4-yl)pyrido[2,3-b]pyrazin-6(5H)-one] |
| < 500 | Non-Active |  | Cc1ccc2cc([C@H]3CC[C@H](c4c(C)cccc4F)CC3)c(=O)n(Cc3ncccc3CC(F)(F)F)c2n1 [compound 239, 3-((1r,4r)-4-(2-fluoro-6-methylphenyl)cyclohexyl)-7-methyl-1-((3-(2,2,2-trifluoroethyl)pyridin-2-yl)methyl)-1,8-naphthyridin-2(1H)-one] |
